Numbered stars: 1 amine (or outer) side, 2 acyl side, 3 side chain; on linkers, the order of the positions; unused ones are H or OH. Bridge positions count the residues as written; N and C are the ends. Square brackets hold non-standard residues; d marks the D form. Peptide text beside a SMILES is read from it. * marks the point of attachment. Piperazine(2S-CO,4-Me) = CN1CCN[C@H](C(=O)O)C1; Phe(3,5-F2) = N[C@@H](Cc1cc(F)cc(F)c1)C(=O)O; X6 = O=C([C@@H]1CS(=O)(=O)CCN1[*:1])[*:2]; Phe(3-Me) = Cc1cccc(C[C@H](N)C(=O)O)c1; Pro(4S-Me) = C[C@@H]1CN[C@H](C(=O)O)C1; NH(4-Cl-2-F-phenyl) = Fc1cc(Cl)ccc1N*; Pro(4R-Me) = C[C@H]1CN[C@H](C(=O)O)C1; Propanoyl(3-NMe2) = CN(C)CCC(=O)*; X1 = O=C([C@@H]1CSCCN1[*:1])[*:2]; Hyp = O=C(O)[C@@H]1C[C@@H](O)CN1; NH(4-Me-phenyl) = Cc1ccc(N*)cc1; aThr = C[C@H](O)[C@H](N)C(=O)O; Pip = O=C(O)[C@@H]1CCCCN1; 4Abz = Nc1ccc(C(=O)O)cc1; CO = O=C([*:1])[*:2]; X2 = Fc1cc(N*)ccc1Cl
Columns and labels:
[1] = Plasma protein binding, rapid equilibrium dialysis; type: in vitro ADME, mouse
Protocol: This assay determines plasma protein binding of a drug/compound and free drug concentration in plasma using rapid equilibrium dialysis, which allow the aqueous component of plasma containing the free drug/compound through a dialysis membrane (MWCO˜8,000).
Solutions were prepared at 10 mM in DMSO. Dulbecco's phosphate buffered saline (DPBS; pH 7.4) was obtained from Invitrogen (Carlsbad, Calif.). Single-Use RED (rapid equilibrium dialysis) device was obtained from Thermo scientific (Rockford, Ill.). Human plasma was obtained from Innovative Research INC (Novi, Michigan, Ill).
Sample preparation for plasma protein binding was modified from Waters' method. (Waters et al. (2008) J. Pharm. Sci. 97(10): 4586-95). The Teflon base plate with the RED inserts (MWCO 8 K) were allowed to use without any pre-condition the membrane inserts. Human plasma was thawed and centrifuged at 1000 rpm for 2 min to remove any particulates. Each compound was prepared at 10 μM in human plasma. This was done by adding 1 μL, of drug solution (10 mM in DMSO) to 1000 μL, of human plasma (0.1% DMSO). Spiked plasma solutions (300 μL) were placed into the sample chamber (indicated by the red ring) and 500 μL, of DPBS into the adjacent chamber. The plate was sealed and incubated at 37° C. on an orbital shaker (100 rpm) for 4 hours. After incubation, the seal was removed from the RED plate and the volume of the insert confirmed—little to no volume change occurred. Aliquots (50 μL) were removed from each side of the insert and dispensed into a 96-well deep plate. An equal volume of blank plasma or DPBS was added to the required wells to create analytically identical sample matrices (matrix matching). To each sample 200 μL, of ACN containing 4 μg/mL warfarin IS was added. All of the plates were sealed and mixed well at 600 rpm for 10 min and were centrifuged at 4000 rpm for 20 min. The supernatants (120 μL) were transferred to analytical plates for analysis by LCMS. Conditions for Waters ACQUITY-UPLC-MS-UV system were described separately. The test compound concentrations were quantified in both buffer and plasma chambers via peak areas relative to the internal standard. The percentage of the test compound bound to plasma was calculated on following equations: % Free=(Concentration buffer chamber/concentration plasma chamber)×100% and % Bound=100%-% Free.

[2] = Plasma stability assay; type: in vitro ADME, human
Protocol: The plasma stability property of early drug discovery compounds can influence the in vivo efficacy of the test compounds/drugs. Human and/or mouse plasma degradation is determined using multiple time points to monitor the rate of disappearance of the parent compound during incubation.
Sample preparation for plasma stability was modified from Di et al. (2005) Int. J. Pharm. 297(1-2): 110-119. A set of incubation times of 0, 3, 24, and 48 hour were used. DMSO stock solutions of test compounds were prepared at 10 mM concentration. 1.8 μL of each test compound was each added directly to 1.8 mL of human/mouse plasma to get the final concentration of 10 μM. This compound/matrix was mixed and 70 μL was transferred to 8 time points plates (each in triplicate wells). For the Time 0 plate, 210 μL of cold acetonitrile with internal standard (4 μg/mL warfarin) was added to each well and no incubation needed. For other seven time points' plate, the plate was incubated at 37° C. for required time, followed by quenching of the reaction by adding 210 μL of cold acetonitrile with internal standard (4 μg/ml warfarin) to each well. All of the plates were sealed and mixed well at 600 rpm for 10 min and were centrifuged at 4000 rpm for 20 min. The supernatants (120 μL) were transferred to analytical plates for analysis by LCMS. Conditions for Waters ACQUITY-UPLC-MS-UV system was described separately. The plasma stability was evaluated via the half-life from least-squares fit of the multiple time points based on first-order kinetics.

[3] = plasma binding, % Bound, mouse plasma
[4] = plasma stability half-life, human plasma, 37° C.

Row | Structure (SMILES) | Mouse ([1]; mouse, 4 h, 10 μM, pH 7.4) | Human ([2]; human, 10 μM) | Mouse [1, 3] | Human [2, 4]
1 | Cc1cccc(C[C@H](NC(=O)Nc2ccc(Cl)cc2F)C(=O)N[C@@H]2C(=O)N3CCC[C@H]3C(=O)N3CCSC[C@H]3C(=O)N[C@@H](C)C(=O)N3C[C@H](C)C[C@H]3C(=O)O[C@H]2C)c1 [Compound 38, (S)-2-(3-(4-CHLORO-2-FLUOROPHENYL)UREIDO)-3-(M-TOLYL)-N-((6AS,12S,13S,15AS,17R,21S,23AR)-13,17,21-TRIMETHYL-6,11,15,20,23-PENTAOXOOCTADECAHYDRO-6H,11H,15H-DIPYRROLO[2,1-C:2′,1′-L][1,4]THIAZINO[3,4-I][1]OXA[4,7,10,13]TETRAAZACYCLOHEXADECIN-12-YL)PROPANAMIDE] ({NH(4-Cl-2-F-phenyl)-CO}-[Phe(3-Me)][aThr]P[X1]A[Pro(4R-Me)]; ester 2-C) | 96.0 ± 6.0% | >50 h | – | –
2 | Cc1ccc(NC(=O)N[C@@H](Cc2cccc(C)c2)C(=O)N[C@H]2COC(=O)[C@@H]3C[C@H](C)CN3C(=O)[C@H](C)NC(=O)[C@@H]3CCCCN3C(=O)[C@@H]3CCCN3C2=O)cc1 (stereo in doubt) [Compound 43, (S)—N-((2S,6S,8AS,14AS,20S,23AS)-2,6-DIMETHYL-5,8,14,19,23-PENTAOXOOCTADECAHYDRO-1H,5H,14H,19H-PYRIDO[2,1-I]DIPYRROLO[2,1-C:2′,1′-L][1]OXA[4,7,10,13]TETRAAZACYCLOHEXADECIN-20-YL)-3-(M-TOLYL)-2-(3-(P-TOLYL)UREIDO)PROPANAMIDE] | – | – | 61.7 ± 1.6% | >50 h
3 | Cc1cccc(C[C@H](NC(=O)Nc2ccc(Cl)cc2F)C(=O)N[C@@H]2C(=O)N3C[C@H](O)C[C@H]3C(=O)N3CCSC[C@H]3C(=O)N[C@@H](C)C(=O)N3C[C@H](C)C[C@H]3C(=O)O[C@H]2C)c1 [Compound 41, (S)-2-(3-(4-CHLORO-2-FLUOROPHENYL)UREIDO)-N-((6AS,8R,12S,13S,15AS,17R,21S,23AR)-8-HYDROXY-13,17,21-TRIMETHYL-6,11,15,20,23-PENTAOXOOCTADECAHYDRO-6H,11H,15H-DIPYRROLO[2,1-C:2′,1′-L][1,4]THIAZINO[3,4-I][1]OXA[4,7,10,13]TETRAAZACYCLOHEXADECIN-12-YL)-3-(M-TOLYL)PROPANAMIDE] ({NH(4-Cl-2-F-phenyl)-CO}-[Phe(3-Me)][aThr][Hyp][X1]A[Pro(4R-Me)]; ester 2-C) | 99.9 ± 9.9% | >50 h | – | –
4 | C[C@@H]1C[C@H]2C(=O)OC[C@H](NC(=O)[C@H](Cc3cc(F)cc(F)c3)NC(=O)Nc3ccc(Cl)cc3F)C(=O)N3CCC[C@H]3C(=O)N3CCN(C)C[C@H]3C(=O)N[C@@H](C)C(=O)N2C1 [Compound 34] ({NH(4-Cl-2-F-phenyl)-CO}-[Phe(3,5-F2)]SP[Piperazine(2S-CO,4-Me)]A[Pro(4R-Me)]; ester 2-C) | 97.5 ± 7.5% | 26.56 h | – | –
5 | Cc1ccc(NC(=O)N[C@@H](Cc2cccc(C)c2)C(=O)N[C@H]2COC(=O)[C@@H]3CCCN3C(=O)[C@H](C)NC(=O)[C@@H]3CCCCN3C(=O)[C@@H]3C[C@@H](O)CN3C2=O)cc1 [Compound 49, (S)—N-((6S,8AS,14AS,16R,20S,23AS)-16-HYDROXY-6-METHYL-5,8,14,19,23-PENTAOXOOCTADECAHYDRO-1H,5H,14H,19H-PYRIDO[2,1-I]DIPYRROLO[2,1-C:2′,1′-L][1]OXA[4,7,10,13]TETRAAZACYCLOHEXADECIN-20-YL)-3-(M-TOLYL)-2-(3-(P-TOLYL)UREIDO)PROPANAMIDE] | – | – | 99.4 ± 9.4% | 29.79 h
6 | Cc1cccc(C[C@H](NC(=O)Nc2ccc(Cl)c(F)c2)C(=O)N[C@@H]2C(=O)N3CCC[C@H]3C(=O)N3CCCC[C@H]3C(=O)N[C@@H](C)C(=O)N3C[C@H](C)C[C@H]3C(=O)O[C@H]2C)c1 [Compound 35, (S)-2-(3-(4-CHLORO-3-FLUOROPHENYL)UREIDO)-3-(M-TOLYL)-N-((2R,6S,8AS,14AS,20S,21S,23AS)-2,6,21-TRIMETHYL-5,8,14,19,23-PENTAOXOOCTADECAHYDRO-1H,5H,14H,19H-PYRIDO[2,1-I]DIPYRROLO[2,1-C:2′,1′-L][1]OXA[4,7,10,13]TETRAAZACYCLOHEXADECIN-20-YL)PROPANAMIDE] ({X2-CO}-[Phe(3-Me)][aThr]P[Pip]A[Pro(4R-Me)]; ester 2-C) | 99.7 ± 9.7% | >50 h | – | –
7 | CCOC(=O)c1ccc(NC(=O)N[C@@H](Cc2cccc(C)c2)C(=O)N[C@@H]2C(=O)N3C[C@H](O)C[C@H]3C(=O)N3CCCC[C@H]3C(=O)N[C@@H](C)C(=O)N3C[C@H](C)C[C@H]3C(=O)O[C@H]2C)cc1 [Compound 36, ETHYL 4-(3-((S)-1-(((2R,6S,8AS,14AS,16R,20S,21S,23AS)-16-HYDROXY-2,6,21-TRIMETHYL-5,8,14,19,23-PENTAOXOOCTADECAHYDRO-1H,5H,14H,19H-PYRIDO[2,1-I]DIPYRROLO[2,1-C:2′,1′-L][1]OXA[4,7,10,13]TETRAAZACYCLOHEXADECIN-20-YL)AMINO)-1-OXO-3-(M-TOLYL)PROPAN-2-YL)UREIDO)BENZOATE] ({OEt-4Abz-CO}-[Phe(3-Me)][aThr][Hyp][Pip]A[Pro(4R-Me)]; ester 2-C) | – | – | – | 57.50 h
8 | Cc1cccc(C[C@H](NC(=O)Nc2ccc(Cl)cc2F)C(=O)N[C@@H]2C(=O)N3C[C@H](OC(=O)CCN(C)C)C[C@H]3C(=O)N3CCCC[C@H]3C(=O)N[C@@H](C)C(=O)N3C[C@H](C)C[C@H]3C(=O)O[C@H]2C)c1 [Compound 46, (2R,6S,8AS,14AS,16R,20S,21S,23AS)-20-((S)-2-(3-(4-CHLORO-2-FLUOROPHENYL)UREIDO)-3-(M-TOLYL)PROPANAMIDO)-2,6,21-TRIMETHYL-5,8,14,19,23-PENTAOXOOCTADECAHYDRO-1H,5H,14H,19H-PYRIDO[2,1-I]DIPYRROLO[2,1-C:2′,1′-L][1]OXA[4,7,10,13]TETRAAZACYCLOHEXADECIN-16-YL 3-(DIMETHYLAMINO)PROPANOATE] ({NH(4-Cl-2-F-phenyl)-CO}-[Phe(3-Me)][aThr][Hyp](Propanoyl(3-NMe2))[Pip]A[Pro(4R-Me)]; ester 2-C) | 93.0 ± 0.8% | 0.57 h | – | –
9 | Cc1ccc(NC(=O)N[C@@H](Cc2cccc(C)c2)C(=O)N[C@@H]2C(=O)N3CCC[C@H]3C(=O)N3CCCC[C@H]3C(=O)N[C@@H](C)C(=O)N3C[C@@H](C)C[C@H]3C(=O)O[C@H]2C)cc1 [Compound 45, (S)-3-(M-TOLYL)-2-(3-(P-TOLYL)UREIDO)-N-((2S,6S,8AS,14AS,20S,21S,23AS)-2,6,21-TRIMETHYL-5,8,14,19,23-PENTAOXOOCTADECAHYDRO-1H,5H,14H,19H-PYRIDO[2,1-I]DIPYRROLO[2,1-C:2′,1′-L][1]OXA[4,7,10,13]TETRAAZACYCLOHEXADECIN-20-YL)PROPANAMIDE] ({NH(4-Me-phenyl)-CO}-[Phe(3-Me)][aThr]P[Pip]A[Pro(4S-Me)]; ester 2-C) | – | – | 92.1 ± 1.3% | >50 h
10 | Cc1cccc(C[C@H](NC(=O)Nc2ccc(Cl)cc2F)C(=O)N[C@@H]2C(=O)N3CCC[C@H]3C(=O)N3CCS(=O)(=O)C[C@H]3C(=O)N[C@@H](C)C(=O)N3C[C@H](C)C[C@H]3C(=O)O[C@H]2C)c1 [Compound 40, (S)-2-(3-(4-CHLORO-2-FLUOROPHENYL)UREIDO)-3-(M-TOLYL)-N-((6AS,12S,13S,15AS,17R,21S,23AR)-13,17,21-TRIMETHYL-2,2-DIOXIDO-6,11,15,20,23-PENTAOXOOCTADECAHYDRO-6H,11H,15H-DIPYRROLO[2,1-C:2′,1′-L][1,4]THIAZINO[3,4-I][1]OXA[4,7,10,13]TETRAAZACYCLOHEXADECIN-12-YL)PROPANAMIDE] ({NH(4-Cl-2-F-phenyl)-CO}-[Phe(3-Me)][aThr]P[X6]A[Pro(4R-Me)]; ester 2-C) | 99.4 ± 9.4% | >50 h | – | –

From patent publication US10570179B2, “Substituted urea depsipeptide analogs as activators of the CLPP endopeptidase” (priority 2016, dated 2020)
